Experiment [1] addresses Growth factor receptor-bound protein 2 (Mus musculus, UniProt Q60631). The experiment is described as follows: In vitro binding assay of Shc-derived phosphopeptide to Growth factor receptor bound protein 2 SH2 in B104-1-1 cells was determined. The class given is cell-based.
Experiment [2] addresses Growth factor receptor-bound protein 2 (Mus musculus) (UniProt Q60631). Kind of experiment: In vitro inhibitory activity against Shc/Grb2 interactions in B104-1-1 cells at 2 uM. Type of experiment: functional, cell-based.
In experiment [3] the test system is B104. The experiment is described as follows: Growth inhibitory activity was tested against B104-1-1 cells. Type of experiment: functional, Mus musculus.
For experiment [4], the target named is Growth factor receptor-bound protein 2 (Mus musculus) (UniProt Q60631). The experiment is described as follows: In vitro inhibitory activity against Shc/Grb2 interactions in B104-1-1 cells at 5 uM. The class given is functional, cell-based.
Experiment [5] deals with B104. The experiment is described as follows: Growth inhibitory activity against B104-1-1 cells; Not active. To be noted: Mus musculus. The class given is functional, cell-based.

As usually defined, the IC50 is the concentration that gives 50% inhibition. The low end stands for inhibition by little substance, the high end for a need for much substance. Broadly, the inhibition is the percentage by which the read-out fell short of the control. High values mean a response far below the control, low ones a response near the control. In general, GI50 refers to the concentration at which growth is held to half of that of the control.

Calls of active or inactive are those of the source. The calls are words filed in the database; no cut-off is given here.

Growth factor receptor-bound protein 2 (Mus musculus), sequence (Q60631 whole entry): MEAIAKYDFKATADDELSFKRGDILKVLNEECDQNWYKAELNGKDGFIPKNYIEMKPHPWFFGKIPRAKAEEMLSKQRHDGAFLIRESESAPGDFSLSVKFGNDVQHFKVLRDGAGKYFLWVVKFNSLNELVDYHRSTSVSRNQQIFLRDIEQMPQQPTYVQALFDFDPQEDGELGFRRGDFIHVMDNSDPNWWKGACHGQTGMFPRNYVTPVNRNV
Growth factor receptor-bound protein 2, sequence (Q60631 whole entry): as above

The compound `COc1ccc(C[C@H]2NC(=O)[C@@H](NC(=O)c3c4nc5c(C(=O)N[C@@H]6C(=O)N[C@H](Cc7ccc(OC)cc7)C(=O)N7CCC[C@H]7C(=O)N(C)CC(=O)N[C@@H](C(C)C)C(=O)O[C@@H]6C)ccc(C)c5oc-4c(C)c(=O)c3N)[C@@H](C)OC(=O)[C@H](C(C)C)NC(=O)CN(C)C(=O)[C@@H]3CCCN3C2=O)cc1` displayed an IC50 in experiment [1] of 1500 nM. In addition, the figures for the inhibition in experiment [2] and in experiment [4] were 69.7% and 80.6%, respectively. In the experiment with B104 [3], this compound gave a GI50 of 10 nM.
The like results for `CC[C@@H](C)[C@H]1NC(=O)[C@@H](NC(=O)c2c3nc4c(C(=O)N[C@@H]5C(=O)N[C@H]([C@H](C)CC)C(=O)N6CCC[C@H]6C(=O)N(C)CC(=O)N[C@@H](C(C)C)C(=O)O[C@@H]5C)ccc(C)c4oc-3c(C)c(=O)c2N)[C@@H](C)OC(=O)[C@H](C(C)C)NC(=O)CN(C)C(=O)[C@@H]2CCCN2C1=O` were, in that order, 5900 nM, 30.9%, 40.8% and 0.8 nM.
The like results for `CC[C@@H](C)[C@H]1NC(=O)CN(C)C(=O)[C@@H]2CCCN2C(=O)[C@@H]([C@H](C)CC)NC(=O)[C@@H](NC(=O)c2c3nc4c(C(=O)N[C@@H]5C(=O)N[C@H]([C@H](C)CC)C(=O)N6CCC[C@H]6C(=O)N(C)CC(=O)N[C@H]([C@H](C)CC)C(=O)O[C@@H]5C)ccc(C)c4oc-3c(C)c(=O)c2N)[C@@H](C)OC1=O` were, in that order, 7600 nM, 15.1%, 25.3% and 1 nM.
On to `Cc1c2oc3c(C)ccc(C(=O)N[C@@H]4C(=O)N[C@H](Cc5ccc(O)cc5)C(=O)N5CCC[C@H]5C(=O)N(C)CC(=O)N[C@@H](C(C)C)C(=O)O[C@@H]4C)c3nc-2c(C(=O)N[C@@H]2C(=O)N[C@H](Cc3ccc(O)cc3)C(=O)N3CCC[C@H]3C(=O)N(C)CC(=O)N[C@@H](C(C)C)C(=O)O[C@@H]2C)c(N)c1=O` (stereo in doubt; 1), for which the values for the inhibition in experiment [2] and in experiment [4] were 84.3% and 90.7%, respectively. Moreover, the GI50 result with B104 [5] is “inactive”.
The like results for `Cc1c2oc3c(C)ccc(C(=O)N[C@@H]4C(=O)N[C@H](C(C)C)C(=O)N5CCC[C@H]5C(=O)N(C)CC(=O)N[C@H](Cc5ccc(O)cc5)C(=O)O[C@@H]4C)c3nc-2c(C(=O)N[C@@H]2C(=O)N[C@H](C(C)C)C(=O)N3CCC[C@H]3C(=O)N(C)CC(=O)N[C@H](Cc3ccc(O)cc3)C(=O)O[C@@H]2C)c(N)c1=O` (stereo in doubt; 5) were, in that order, 3.5%, 27.4% and “inactive”.
Compound `Cc1c2oc3c(C)ccc(C(=O)N[C@@H]4C(=O)N[C@H](C(C)C)C(=O)N5CCC[C@H]5C(=O)N(C)CC(=O)N[C@H](C(C)C)C(=O)O[C@@H]4C)c3nc-2c(C(=O)N[C@@H]2C(=O)N[C@H](C(C)C)C(=O)N3CCC[C@H]3C(=O)N(C)CC(=O)N[C@H](C(C)C)C(=O)O[C@@H]2C)c(N)c1=O` registered an IC50 in experiment [1] of 1000 nM. Further, the inhibition in experiment [2] came to 72%; in experiment [4] it was 86%. This compound showed a GI50 with B104 [3] of 3 nM.
As to `Cc1c2oc3c(C)ccc(C(=O)N[C@@H]4C(=O)N[C@H](C(C)C)C(=O)N5CCC[C@H]5C(=O)N(C)CC(=O)N[C@H](Cc5ccccc5)C(=O)O[C@@H]4C)c3nc-2c(C(=O)N[C@@H]2C(=O)N[C@H](C(C)C)C(=O)N3CCC[C@H]3C(=O)N(C)CC(=O)N[C@H](Cc3ccccc3)C(=O)O[C@@H]2C)c(N)c1=O`, in experiment [1], the IC50 came out at 900 nM. Moreover, the results for the inhibition in experiment [2] and in experiment [4] were 75.1% and 87.7%, respectively. This compound yielded a GI50 in the experiment with B104 [3] of 3 nM.

Source of the values: ChEMBL document CHEMBL1133215, “Natural and synthetic analogues of actinomycin D as Grb2-SH2 domain blockers” (Bioorg Med Chem Lett, 2000).
